Source: patent US20090036474A1, “Quinazoline derivatives for use against cancer” (priority 2004, published 2009)

Molecular target: T1, phospho-Tyr751 PDGFRβ (Homo sapiens, UniProt P09619)
T1 construct: phosphorylation of PDGFR expressed on MG63 osteosarcoma cells; endogenous in cells; host or cells: MG63 osteosarcoma cells
Assay: In vitro phospho-Tyr751 PDGFRβ ELISA assay in MG63 osteosarcoma cells, Test (b)
Type: cell-based
Conditions: MG63 cells stimulated with PDGFBB, read-out: IC50 versus phospho-Tyr751 PDGFRβ
Description: This assay uses a conventional ELISA method to determine the ability of test compounds to inhibit phosphorylation of tyrosine in PDGFRβ.
An MG63 osteosarcoma cell line [American Type Culture Collection (ATCC) CCL 1427] was routinely maintained at 37° C. with 7.5% CO2 in Dulbecco's modified Eagle's growth medium (DMEM; Sigma-Aldrich; Catalogue No. D6546) containing 10% foetal calf serum (FCS; Sigma-Aldrich; Catalogue No. F7524) and 2 mM L-glutamine (Invitrogen Ltd., Paisley, UK; Catalogue No. 25030-024).
For the assay, the cells were detached from the culture flask using a trypsin/ethylenediaminetetraacetic acid (EDTA) mixture (Invitrogen Ltd.; Catalogue No. 15400-054) and resuspended in test media comprising DMEM without phenol red (Sigma-1-Aldrich; Catalogue No. D5921) containing 1% charcoal-stripped-foetal calf serum (FCS) (Sigma-Aldrich; Catalogue No. F7524, stripped by incubation with dextran-coated activated charcoal at 55° C. for 30 minutes with continuous stirring followed by removal of the charcoal by centrifugation and filter sterilisation) and 2 mM L-glutamine (Invitrogen Ltd., Catalogue No. 25030-024) to give 6×10^4 cells per ml. […]

T1 sequence (P09619 33-1106): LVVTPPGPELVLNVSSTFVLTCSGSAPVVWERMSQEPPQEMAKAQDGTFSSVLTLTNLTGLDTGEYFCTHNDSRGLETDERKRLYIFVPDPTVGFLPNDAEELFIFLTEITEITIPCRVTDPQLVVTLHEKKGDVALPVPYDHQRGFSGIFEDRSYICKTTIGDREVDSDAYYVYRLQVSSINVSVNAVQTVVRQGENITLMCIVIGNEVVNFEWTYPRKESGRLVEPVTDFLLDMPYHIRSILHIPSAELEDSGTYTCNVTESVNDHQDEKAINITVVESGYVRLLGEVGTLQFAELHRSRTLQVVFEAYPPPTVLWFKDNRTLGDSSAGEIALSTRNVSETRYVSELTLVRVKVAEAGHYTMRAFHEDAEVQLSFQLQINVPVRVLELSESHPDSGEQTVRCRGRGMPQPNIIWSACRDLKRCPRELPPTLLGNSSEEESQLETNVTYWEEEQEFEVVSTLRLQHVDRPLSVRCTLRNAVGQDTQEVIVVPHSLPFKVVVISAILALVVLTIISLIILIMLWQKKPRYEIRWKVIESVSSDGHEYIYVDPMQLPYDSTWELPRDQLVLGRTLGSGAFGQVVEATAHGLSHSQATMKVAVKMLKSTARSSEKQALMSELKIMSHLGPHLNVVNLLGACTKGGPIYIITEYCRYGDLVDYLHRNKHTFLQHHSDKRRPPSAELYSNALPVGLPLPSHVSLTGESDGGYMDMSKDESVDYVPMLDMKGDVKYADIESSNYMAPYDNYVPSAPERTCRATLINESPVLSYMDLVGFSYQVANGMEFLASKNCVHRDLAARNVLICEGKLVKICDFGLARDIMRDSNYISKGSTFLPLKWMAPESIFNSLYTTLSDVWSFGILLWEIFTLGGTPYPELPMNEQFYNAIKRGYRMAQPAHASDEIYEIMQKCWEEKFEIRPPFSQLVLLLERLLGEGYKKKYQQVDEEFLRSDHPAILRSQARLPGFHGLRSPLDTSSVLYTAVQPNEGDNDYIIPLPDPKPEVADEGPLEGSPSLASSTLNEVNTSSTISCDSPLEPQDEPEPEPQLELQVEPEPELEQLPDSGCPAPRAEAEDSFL

IC50: ~3 nM
Compound: COc1cc2ncnc(Oc3cnn(CC(=O)Nc4cccc5c4OCO5)c3)c2cc1OC [Example 2, N-(2,3-methylenedioxyphenyl)-2-[4-(6,7-dimethoxyquinazolin-4-yloxy)pyrazol-1-yl]acetamide]
